Laboratory results taken from ChEMBL document CHEMBL1201862, “PubChem BioAssay data set” (2004).
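96-well plates; 48 h exposure; 5 concentrations. Endpoints by linear interpolation between flanking doses. Not reached: highest tested concentration assigned. At the GI50, growth is halved.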 Activity calls are given as the source filed them. Cut-off read from the data, not from the text of the source: active = GI50 up to about 1.1 µM and inactive = higher.

What was measured:
Assay in all cases: inhibition of tumour cell growth, NCI panel, 48 h
[1] = system: SR
[2] = system: MOLT-4
[3] = system: RXF 393
[4] = system: SNB-75
[5] = system: HL-60
[6] = system: M19-MEL
[7] = system: IGROV-1
[8] = system: OVCAR-5
[9] = system: UO-31
[10] = system: 786-0
[11] = system: LXFL 529
[12] = system: KM-20L2
[13] = system: TK-10
[14] = system: NCI-H460
[15] = system: XF498
[16] = system: OVCAR-4
[17] = system: SF-539
[18] = system: DMS-114
[19] = system: SN12C
[20] = system: OVCAR-8
[21] = system: HT-29
[22] = system: A498
[23] = system: SK-OV-3
[24] = system: LOX IMVI
[25] = system: SF-295
[26] = system: EKVX
[27] = system: NCI-H23
[28] = system: SNB-19
[29] = system: SW-620
[30] = system: Malme-3M
[31] = system: HOP-18
[32] = system: HCT-116
[33] = system: U-251
[34] = system: CCRF-CEM
[35] = system: DLD-1
[36] = system: M14
[37] = system: K562
[38] = system: NCI-H226
[39] = system: ACHN
[40] = system: HOP-62
[41] = system: KM12
[42] = system: UACC-62
[43] = system: SF-268
[44] = system: SNB-78
[45] = system: A549
[46] = system: OVCAR-3
[47] = system: UACC-257
[48] = system: SK-MEL-28
[49] = system: RPMI-8226
[50] = system: MDA-MB-231
[51] = system: COLO 205
[52] = system: CAKI-1
[53] = system: SK-MEL-2
[54] = system: SK-MEL-5
[55] = system: T47D
[56] = system: HCC 2998
[57] = system: DMS-273
[58] = system: PC-3
[59] = system: Hs-578T
[60] = system: HOP-92
[61] = system: HCT-15
[62] = system: DU-145
[63] = system: NCI/ADR-RES
[64] = system: MDA-N
[65] = system: MDA-MB-435
[66] = system: NCI-H522

How did the GI50 [1] turn out when `Cc1cccc2c(O)cc(=O)oc12` was run?
The GI50 was > 100 µM (inactive).

What about the GI50 [2] of the same compound?
The GI50 was > 100 µM (inactive).

And the GI50 [3]?
Its GI50 is > 100 µM (inactive).

And the GI50 [4]?
The GI50 was > 100 µM (inactive).

What about the GI50 [5] of the same compound?
The GI50 was > 100 µM (inactive).

And the GI50 [6]?
Its GI50 is > 100 µM (inactive).

And the GI50 [7]?
The GI50 was > 100 µM (inactive).

What about the GI50 [8] of the same compound?
The GI50 was > 100 µM (inactive).

What about the GI50 [9] of the same compound?
The GI50 was > 100 µM (inactive).

And the GI50 [10]?
The GI50 was > 100 µM (inactive).

And the GI50 [11]?
Its GI50 is > 100 µM (inactive).

And the GI50 [12]?
The GI50 was > 100 µM (inactive).

And the GI50 [13]?
Its GI50 is > 100 µM (inactive).

And the GI50 [14]?
The GI50 was > 100 µM (inactive).

What about the GI50 [15] of the same compound?
Its GI50 is > 100 µM (inactive).

And the GI50 [16]?
The GI50 was > 100 µM (inactive).

What about the GI50 [17] of the same compound?
The GI50 was > 100 µM (inactive).

What about the GI50 [18] of the same compound?
The GI50 was > 100 µM (inactive).

And the GI50 [19]?
Its GI50 is > 100 µM (inactive).

And the GI50 [20]?
The GI50 was > 100 µM (inactive).

What about the GI50 [21] of the same compound?
Its GI50 is > 100 µM (inactive).

And the GI50 [22]?
The GI50 was > 100 µM (inactive).

What about the GI50 [23] of the same compound?
The GI50 was > 100 µM (inactive).

What about the GI50 [24] of the same compound?
The GI50 was > 100 µM (inactive).

What about the GI50 [25] of the same compound?
The GI50 was > 100 µM (inactive).

And the GI50 [26]?
Its GI50 is > 100 µM (inactive).

And the GI50 [27]?
The GI50 was > 100 µM (inactive).

What about the GI50 [28] of the same compound?
The GI50 was > 100 µM (inactive).

And the GI50 [29]?
The GI50 was > 100 µM (inactive).

And the GI50 [30]?
Its GI50 is > 100 µM (inactive).

And the GI50 [31]?
Its GI50 is > 100 µM (inactive).

And the GI50 [32]?
Its GI50 is > 100 µM (inactive).

What about the GI50 [33] of the same compound?
Its GI50 is > 100 µM (inactive).

What about the GI50 [34] of the same compound?
Its GI50 is > 100 µM (inactive).

And the GI50 [35]?
Its GI50 is > 100 µM (inactive).

What about the GI50 [36] of the same compound?
The GI50 was > 100 µM (inactive).

What about the GI50 [37] of the same compound?
Its GI50 is > 100 µM (inactive).

What about the GI50 [38] of the same compound?
The GI50 was > 100 µM (inactive).

And the GI50 [39]?
The GI50 was > 100 µM (inactive).

And the GI50 [40]?
Its GI50 is > 100 µM (inactive).

What about the GI50 [41] of the same compound?
Its GI50 is > 100 µM (inactive).

And the GI50 [42]?
The GI50 was > 100 µM (inactive).

And the GI50 [43]?
The GI50 was > 100 µM (inactive).

What about the GI50 [44] of the same compound?
The GI50 was > 100 µM (inactive).

And the GI50 [45]?
The GI50 was > 100 µM (inactive).

And the GI50 [46]?
Its GI50 is > 100 µM (inactive).

And the GI50 [47]?
Its GI50 is > 100 µM (inactive).

And the GI50 [48]?
The GI50 was > 100 µM (inactive).

And the GI50 [49]?
Its GI50 is > 100 µM (inactive).

`CC1=CC2=C(OCO1)C(=O)c1ccccc1C2=O` was tested. Which GI50 [1] did it give?
Its GI50 is 7.82 µM (inactive).

And the GI50 [2]?
The GI50 was 6.84 µM (inactive).

And the GI50 [3]?
Its GI50 is 4.61 µM (inactive).

What about the GI50 [4] of the same compound?
The GI50 was 3.66 µM (inactive).

And the GI50 [5]?
Its GI50 is 3.95 µM (inactive).

What about the GI50 [6] of the same compound?
The GI50 was 1.79 µM (inactive).

What about the GI50 [7] of the same compound?
The GI50 was 11 µM (inactive).

And the GI50 [50]?
The GI50 was 4.13 µM (inactive).

What about the GI50 [8] of the same compound?
Its GI50 is 6.21 µM (inactive).

And the GI50 [9]?
The GI50 was 7.94 µM (inactive).

What about the GI50 [10] of the same compound?
Its GI50 is 12.8 µM (inactive).

What about the GI50 [11] of the same compound?
Its GI50 is 21.7 µM (inactive).

And the GI50 [12]?
The GI50 was 22.9 µM (inactive).

What about the GI50 [13] of the same compound?
The GI50 was 28.1 µM (inactive).

What about the GI50 [14] of the same compound?
The GI50 was 7.11 µM (inactive).

And the GI50 [51]?
Its GI50 is 5.86 µM (inactive).

What about the GI50 [16] of the same compound?
Its GI50 is 3.73 µM (inactive).

And the GI50 [52]?
The GI50 was 8.39 µM (inactive).

What about the GI50 [17] of the same compound?
The GI50 was 6.14 µM (inactive).

What about the GI50 [18] of the same compound?
Its GI50 is 3.35 µM (inactive).

What about the GI50 [19] of the same compound?
The GI50 was 5.68 µM (inactive).

What about the GI50 [20] of the same compound?
The GI50 was 8.87 µM (inactive).

What about the GI50 [21] of the same compound?
Its GI50 is 7.4 µM (inactive).

And the GI50 [22]?
Its GI50 is 14.5 µM (inactive).

And the GI50 [23]?
Its GI50 is 13.3 µM (inactive).

What about the GI50 [24] of the same compound?
The GI50 was 1.02 µM (active).

What about the GI50 [25] of the same compound?
The GI50 was 4.17 µM (inactive).

What about the GI50 [26] of the same compound?
Its GI50 is 46.7 µM (inactive).

What about the GI50 [53] of the same compound?
The GI50 was 0.652 µM (active).

And the GI50 [27]?
The GI50 was 3.27 µM (inactive).

What about the GI50 [28] of the same compound?
The GI50 was 9.59 µM (inactive).

And the GI50 [29]?
The GI50 was 8.09 µM (inactive).

And the GI50 [30]?
Its GI50 is 2.51 µM (inactive).

And the GI50 [31]?
The GI50 was 12.4 µM (inactive).

What about the GI50 [54] of the same compound?
The GI50 was 1.5 µM (inactive).

What about the GI50 [55] of the same compound?
Its GI50 is 2.43 µM (inactive).

What about the GI50 [32] of the same compound?
Its GI50 is 7.16 µM (inactive).

And the GI50 [33]?
Its GI50 is 1.36 µM (inactive).

What about the GI50 [56] of the same compound?
The GI50 was 30.5 µM (inactive).

What about the GI50 [34] of the same compound?
Its GI50 is 10.1 µM (inactive).

What about the GI50 [57] of the same compound?
Its GI50 is 10.5 µM (inactive).

What about the GI50 [58] of the same compound?
Its GI50 is 3.18 µM (inactive).

And the GI50 [35]?
Its GI50 is 21.5 µM (inactive).

What about the GI50 [59] of the same compound?
Its GI50 is 1.67 µM (inactive).

What about the GI50 [36] of the same compound?
The GI50 was 4.73 µM (inactive).

What about the GI50 [37] of the same compound?
Its GI50 is 6.87 µM (inactive).

What about the GI50 [38] of the same compound?
Its GI50 is 10.4 µM (inactive).

What about the GI50 [39] of the same compound?
The GI50 was 3.76 µM (inactive).

What about the GI50 [60] of the same compound?
The GI50 was 10.4 µM (inactive).

And the GI50 [40]?
The GI50 was 6.87 µM (inactive).

And the GI50 [61]?
The GI50 was 14.8 µM.

And the GI50 [41]?
The GI50 was 6.71 µM (inactive).

And the GI50 [42]?
Its GI50 is 5.11 µM (inactive).

And the GI50 [43]?
The GI50 was 7.5 µM (inactive).

And the GI50 [44]?
The GI50 was 33.1 µM (inactive).

And the GI50 [45]?
Its GI50 is 6.08 µM (inactive).

What about the GI50 [62] of the same compound?
Its GI50 is 2.16 µM (inactive).

What about the GI50 [63] of the same compound?
Its GI50 is 3.31 µM (inactive).

What about the GI50 [64] of the same compound?
Its GI50 is 0.408 µM (active).

And the GI50 [46]?
Its GI50 is 5.4 µM (inactive).

What about the GI50 [47] of the same compound?
The GI50 was 2.79 µM (inactive).

What about the GI50 [65] of the same compound?
Its GI50 is 1.46 µM (inactive).

And the GI50 [48]?
The GI50 was 4.86 µM (inactive).

What about the GI50 [49] of the same compound?
The GI50 was 4.52 µM (inactive).

And the GI50 [66]?
The GI50 was 2.57 µM (inactive).
